Patent US20260174674A1, “INCOMPLETE AUTOPHAGY INDUCTION FOR THE TREATMENT OF CANCER” (Northwestern University, priority 2022, published 2026)

What was measured:
α-synuclein = settings: cited from earlier work
[1] = cited from earlier work
brain metastases = settings: added to whole-brain radiation, cited from earlier work
[2] = system: HCC1954 mammary fat pad tumors; assay: Mammary fat pad tumor model; assay type: in vivo, nude mice
Method: (§1) All animal studies were completed per the National Institutes of Health guidelines on the care and use of laboratory animals for research purposes. The Institutional Committee on Animal Use at Northwestern University approved the protocols. Six- to eight-week-old athymic, immunodeficient (nu/nu) female mice were obtained from Charles River and maintained in a specific pathogen-free facility. For mammary gland injections, 1×10^6 HCC1954 cells were injected in the inguinal mammary fat pad of nude female mice. For the stereotactic intracranial injection, mice were placed in a stereotactic frame, and 5×10^5 BT-474Br cells were intracranially injected at a depth of 3 mm. For intracarotid artery injections, 1×10^6 MDA-MB-231Br cells were injected using a 31-gauge BD insulin syringe into the lumen of internal carotid artery.
The efficacy of metixene hydrochloride was evaluated using an in vivo model. HCC1954 cells were injected into the mammary fat pads of nude mice. After the formation and establishment of 5 mm breast tumors, mice were randomly divided into three groups whereby treatment was administered intraperitoneally: control (25% captisol); metixene (0.1 mg/kg); and metixene (1.0 mg/kg). The dosages were given three times a week. After 6 weeks, fat pad tumors were collected and analyzed (FIG. 2A).

[3] = system: caspase 3/7 activity in MDA-MB-231Br; assay: Caspase 3/7 assay; assay type: cell-based
HCC1954 = assay: CNS drug screen, cell viability, trastuzumab-resistant line; assay type: cell-based; settings: 25 μM
Method: (§2) The Prestwick CNS Drug Library of 320 CNS compounds was purchased from Prestwick Chemical Libraries for screening. Cells were seeded at a density of 5000 cells/well in clear, flatbottomed, black-walled, 96-well plates. Each compound from the library was added at a final concentration of 25 μM per well 1 day after seeding of cells. After three days of treatment, cell viability was measured using CellTiter-Glo® Luminescent Cell Viability Assay (Promega) according to the manufacturer's instructions.
HER2-positive breast cancer has the greatest risk for intracranial-specific metastases. When metastatic cancer cells colonize the brain, they develop resistance to systemic therapies, such as trastuzumab. For this reason, another blinded screen was conducted on a metastatic breast cancer cell line that is trastuzumab-resistant, HCC1954. At 25 μM, the screen yielded five hits that caused a nearly complete loss of cell viability. […] Next, the effect of metixene on different metastatic breast cancer cell lines was determined by measuring its IC50 in two HER2-positive cell lines (BT474 and HCC1954) and five triple-negative breast cancer cell lines (MDAMB-231-Br, HCC1806, HS578T, HCC3153, and SUM159) after 72 hours of treatment.

[4] = system: BT-474Br intracranial tumors; assay: Stereotactic intracranial model of BCBM; assay type: in vivo, nude mice
Method: as §1
After showing its anti-tumor effect in vivo, whether metixene could improve survival in different preclinical models of brain metastases was tested. A stereotactic intracranial injection of HER2-positive BT474-Br cells was performed in nude mice. After 10 days of recovery and tumor growth, the mice were divided into two groups that were treated intraperitoneally: control (25% captisol, n=7); and metixene (1.0 mg/kg, n=8). The dosages were given three times per week.

CT2A glioma cells = assay: Cell killing in glioma cells; assay type: cell-based; settings: increasing amount of metixene
Method: (§3) FIGS. 4A-4C. Metixene induces cell death in primary brain tumors and other metastatic cancers. (FIG. 4A) CT2A glioma cells were treated with increasing amount of metixene. […] (FIG. 4B) H2030Br lung cancer brain metastatic cells were treated with increasing amount of metixene. […] (FIG. 4C) WM3734 melanoma brain metastatic cells were treated with increasing amount of metixene.
(§4) The inventors then checked whether NDRG1 is further involved in the apoptotic cell death induced by metixene. A cell viability assay was conducted to check the effect of NDRG1 KO versus vector control upon metixene dose-dependent treatment. […] Upon NDRG1 KO, autophagy is completed, and the caspase-mediated pathway of apoptosis is not activated. This mechanism applies to primary brain cancers, such as glioblastoma (FIG. 4A), and other metastatic cancers to the brain, such as lung cancer (FIG. 4B) and melanoma (FIG. 4C).

[5] = system: caspase 3/7 activity in BT-474Br; assay: Caspase 3/7 assay; assay type: cell-based
[6] = system: H2030Br lung cancer brain metastatic cells; assay: Cell killing in lung cancer brain metastatic cells; assay type: cell-based; settings: increasing amount of metixene
Method: as §3, §4

[7] = system: LC3 in MDA-MB-231-Br cells; assay: LC3 conversion and autophagy flux; assay type: cell-based; settings: 10 μM, time course
Method: Next, MDA-MB-231-Br cells were treated with metixene for different durations to determine the mechanism of autophagic signaling in brain metastatic cells. […] Afterward, autophagy flux changes after ten minutes, one hour, and three hours of treatment were tested. LC3 II levels in control (untreated) cells, cells treated with chloroquine (25 μM), cells treated with metixene (10 μM), and cells treated with metixene and chloroquine were compared.

[8] = system: WM3734 melanoma brain metastatic cells; assay: Cell killing in melanoma brain metastatic cells; assay type: cell-based; settings: increasing amount of metixene
Method: as §3, §4

[9] = system: cleaved caspase-3 in BT-474Br; assay: Cleaved caspase-3 protein expression; assay type: cell-based; settings: 24 hours
Excerpt: (§5) Next, whether metixene induces apoptotic cell death was investigated. […] Immunofluorescence analysis of metixene-treated BT-474Br and MDA-MB-231Br cells confirmed increased cleaved caspase-3 expression.

[10] = system: cleaved caspase-3 in MDA-MB-231Br; assay: Cleaved caspase-3 protein expression; assay type: cell-based; settings: 24 hours
Excerpt: as §5

LC3 in BT-474Br cells = assay: LC3 puncta immunofluorescence; assay type: cell-based; settings: 10 μM; P=0.015
Method: (§6) The efficacy of metixene in inducing autophagy was tested in two primary breast and brain metastatic cancer cell lines, using BT-474 and BT-474Br and MDA-MB-231 and MDA-MB-231Br, respectively.

[11] = system: NDRG1 KO MDA-MB-231Br cells; assay: NDRG1 CRISPR Cas9 knockout versus vector control; assay type: cell-based
Method: (§7) Upon further analysis of the RPPA data, the phosphorylation of N-Myc Downstream Regulated 1 (NDRG1) was noted to be relevant in four major pathways related to autophagy after 24 hours of metixene treatment. […] To confirm the role of NDRG1 in autophagy, NDRG1 knockout (KO) cells were generated using CRISPR Cas9 in MDA-MB-231Br cells. The cells were then treated with metixene in a dose-dependent manner and compared to cells transfected with a vector control.
as §4

MDA-MB-231Br = assay: Cell viability assay; assay type: cell-based
Method: (§8) Following the determination of an appropriate range for treatment of BCBM cells, the anti-cancer activity of metixene was evaluated in the brain metastatic HER2-positive BT-474Br and the triple-negative MDA-MB-231Br cell lines, using increasing concentrations of the drug at different time points.

BT-474Br = assay: Cell viability assay; assay type: cell-based
Method: as §8

[12] = system: BT-474 and BT-474Br and MDA-MB-231 and MDA-MB-231Br; assay: Autophagy induction with increasing concentration (LC3, SQSTM1/p62); assay type: cell-based
Method: as §6

[13] = system: BT-474Br, a HER2-positive BCBM cell line; assay: CNS drug screen, CellTiter-Glo cell viability; assay type: cell-based; settings: 25 μM, 72 hours, Cell Titer Glo
Method: as §2
A blinded screen was conducted on a drug library comprising 320 structurally diverse drugs that are FDA approved, blood brain barrier (BBB) permeable, and known for their pharmacological effects on the CNS to identify potential hits for therapeutic intervention against brain metastases. Using BT-474Br, a HER2-positive BCBM cell line, the efficacy of the 320 compounds were screened at a standard concentration of 25 μM. After 72 hours of treatment, a cell viability assay was performed using Cell Titer Glo to determine the number of viable, metabolically active cells in culture. The screen yielded five different therapeutic agents that caused a vast reduction (>95%) in cell viability in vitro.

NDRG1 in MDA-MB-231Br = assay: NDRG1 and pNDRG1 expression; assay type: cell-based; settings: dose-dependent treatment
Method: as §7

[14] = system: MDA-MB-231-Br brain metastases; assay: Intracarotid model of multiple brain metastases; assay type: in vivo, nude mice; settings: 1.0 mg/kg intraperitoneally three times per week, p=0.037
Method: as §1
The model was established through a systemic intracarotid injection of triple-negative MDA-MB-231-Br cells in nude mice. Ten days after injection of tumor cells, mice were randomly divided into two groups and treated intraperitoneally with: control (25% captisol, n=5) and metixene (1.0 mg/kg, n=6). The treatments were given three times per week.

[15] = dose-dependent treatment, Western blot

In the case of `C=CCNC1=C2C[C@@H](C)C[C@H](OC)[C@H](O)[C@@H](C)/C=C(\C)[C@H](OC(N)=O)[C@@H](OC)/C=C\C=C(/C)C(=O)NC(=CC1=O)C2=O` [17-AAG], the “reduction of α-synuclein in cells” value (α-synuclein) is listed as “effective in reducing α-synuclein in cells”.
For `CCN(CC)CCCC(C)Nc1ccnc2cc(Cl)ccc12` (stereo not drawn) [chloroquine], the BBB permeability [1] is listed as “low permeability of the BBB”, the toxicity (brain metastases; vs controls) is listed as “no increase in toxicity” and the overall survival (brain metastases; controls 7.42 months, P=0.839) is listed as 10.2 months.
In the case of `CN1CCCC(CC2c3ccccc3Sc3ccccc32)C1` (stereo not drawn) [metixene], the tumor weight ([2]; 0.1 mg/kg intraperitoneally three times a week, 6 weeks, P=0.0043) is reported as “decreased significantly”, the “percent of cleaved caspase-3-positive cells in tumor sections” value ([2]; 0.1 mg/kg, p=0.001) is reported as “significant increase” and the tumor weight ([2]; 1.0 mg/kg intraperitoneally three times a week, 6 weeks, P=0.0004) is reported as “decreased significantly”. The “percent of cleaved caspase-3-positive cells in tumor sections” value ([2]; 1.0 mg/kg, p=0.0002) was “significant increase”, the tumor volume ([2]; 0.1 and 1.0 mg/kg intraperitoneally three times a week, 6 weeks, p<0.0001) was “decreased significantly” and the “caspase 3/7 activity” value ([3]; 24 hours, 10 μM and 15 μM) was “significant increase in caspase 3/7 activity”. For the same compound, the “caspase 3/7 activity” value ([3]; 48 hours, 15 μM) was “increased significantly”, the “loss of cell viability” value (HCC1954) was “top hit in both screens” and the median survival ([4]; 1.0 mg/kg intraperitoneally three times per week, control 52 days, p=0.0008) was 64 days. The “luciferase signal in the brain” value ([4]; 1.0 mg/kg, after six weeks of treatment, vs controls, p=0.02) was “significant reduction”, the “concentration at which potent cell-killing effect begins” value (shortened to “concentration”) (CT2A glioma cells) was 5 µM and the “caspase 3/7 activity” value ([5]; 24 hours) was “significant increase in caspase 3/7 activity”. For the same compound, the “caspase 3/7 activity” value ([5]; 48 hours, 15 μM) was “increased significantly”, the “concentration” value [6] was 10 µM and the “conversion of LC3 I to LC3 II” value [7] was “increase as early as ten minutes”. The “concentration” value [8] was 10 µM, the “cleaved caspase-3 protein levels” value [9] was “markedly increase” and the “cleaved caspase-3 protein levels” value [10] was “markedly increase”. The LC3 puncta accumulation (LC3 in BT-474Br cells) was “significant increase in the accumulation of puncta”, the “apoptosis (caspase 3/7) in NDRG1 KO cells vs control” value ([11]; 10 μM (P=0.0078) and 15 μM (P<0.0001)) was “significantly reduced” and the “viability of NDRG1 KO cells vs control cells” value ([11]; 10 μM (P=0.0271) and 20 μM (P<0.0001)) was “significantly more viable”. The “LC3II levels in NDRG1 KO cells vs vector control” value [11, 15] was “decreased significantly”, the “p62 levels in NDRG1 KO cells vs vector control” value [11, 15] was “significant decrease” and the BBB permeability [1] was “BBB permeable”. For the same compound, the cell viability (MDA-MB-231Br; 24 hours) was “significant reduction in cell viability”, the cell viability (MDA-MB-231Br; 48 hours, 5, 10, and 15 μM) was “significantly decreased” and the cell viability (BT-474Br; 24 hours) was “significant reduction in cell viability”. The cell viability (BT-474Br; 48 hours, 15 μM) was “significantly decreased”, the “LC3 II levels” value ([12]; increasing concentration) was “increased as the concentration of metixene increased” and the “ratio of LC3 II to I levels” value ([12]; increasing concentration) was “trended upwards with increasing concentration”. For the same compound, the SQSTM1/p62 levels ([12]; increasing concentration (FIG. 3F)) was “increased with increasing concentration”, the “reduction in cell viability” value [13] was “top hit in both screens” and the “expression of NDRG1 and pNDRG1” value (NDRG1 in MDA-MB-231Br) was “increased significantly in a dose-dependent manner”. For the same compound, the median survival ([14]; control 44 days) was 67 days and the “increase in survival in comparison to controls” value [14] was 52%.
